# In patent US20240409536A1, “COMPOUNDS AND METHODS FOR MODULATING SPLICING” (REMIX THERAPEUTICS INC., priority 2021, published 2024):
# Counter-ions that a name gives are not always drawn.
# Key:
# HTT mRNA [1] = assay: Splicing RT-qPCR assay, HTT canonical (CJ) and alternative (AJ) junction mRNA; format: cell-based; details: Homo sapiens, A673 or K562 cells, 24 hours; for IC50: decrease in canonical junction mRNA; for AC50: increase in alternative junction mRNA
# How it was run: (§1)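 A673 or K562 cells were treated 24 h at 37 °C with compounds in an 11-point 3-fold dilution series (top final 10 uM, DMSO ≤0.25%). Lysates were analysed by one-step RT-qPCR for canonical (CJ) and alternative-exon (AJ) junction isoforms, normalized to GAPDH, GUSB or PPIA.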
# MYB mRNA = assay: Splicing RT-qPCR assay, MYB canonical (CJ) and alternative (AJ) junction mRNA; format: cell-based; details: Homo sapiens, A673 or K562 cells, 24 hours; for IC50: decrease in canonical junction mRNA; for AC50: increase in alternative junction mRNA
# How it was run: as §1
# SMN2 mRNA = assay: Gene panel canonical junction qPCR assay, SMN2 CJ mRNA decrease; format: cell-based, human; details: Homo sapiens, canonical junction qPCR, read-out: SMN2 IC50 (decrease in CJ mRNA levels)
# How it was run: (§2)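 A673 or K562 cells were treated with compound, and lysates underwent cDNA synthesis and qPCR with a CY5 5′-nuclease probe or primer spanning the canonical exon junction. ΔCt versus GAPDH, GUSB or PPIA was normalized to DMSO (2^(−ΔΔCt)), converted to percentage response and fitted four-parameter logistic for IC50.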
# HTT mRNA [2] = assay: Gene panel canonical junction qPCR assay, HTT CJ mRNA decrease; format: cell-based, human; details: Homo sapiens, canonical junction qPCR, read-out: HTT IC50 (decrease in CJ mRNA levels)
# How it was run: as §2
smiles,measurement,setting,value
"CCNC1CCN(c2ccc(C(=O)Nc3cc(F)c4nc(C)cn4c3)c3nccnc23)CC1 [Compound 191, 8-[4-(ethylamino)piperidin-1-yl]-N-{8-fluoro-2-methylimidazo[1,2-a]pyridin-6-yl}quinoxaline-5-carboxamide]",IC50,HTT mRNA [1],100 to 1000 nM
same,AC50,HTT mRNA [1],100 to 1000 nM
same,IC50,MYB mRNA,< 100 nM
same,AC50,MYB mRNA,100 to 1000 nM
same,IC50,SMN2 mRNA,< 100 nM
same,IC50,HTT mRNA [2],100 to 1000 nM
"CNCC1CCN(c2ccc(C(=O)Nc3cc(F)c4nc(C)cn4c3)c3nccnc23)CC1 [Compound 192, N-{8-fluoro-2-methylimidazo[1,2-a]pyridin-6-yl}-8-{4-[(methylamino)methyl]piperidin-1-yl}quinoxaline-5-carboxamide trifluoroacetate]",IC50,HTT mRNA [1],1000 to 10000 nM
same,AC50,HTT mRNA [1],1000 to 10000 nM
same,IC50,MYB mRNA,1000 to 10000 nM
same,AC50,MYB mRNA,1000 to 10000 nM
same,IC50,SMN2 mRNA,100 to 1000 nM
same,IC50,HTT mRNA [2],1000 to 10000 nM
"CNC1CCN(c2ccc(C(=O)Nc3cc(F)c4nc(C)cn4c3)c3nc(C)ccc23)C1 (centres unmarked) [Compound 196, N-{8-fluoro-2-methylimidazo[1,2-a]pyridin-6-yl}-2-methyl-5-[3-(methylamino)pyrrolidin-1-yl]quinoline-8-carboxamide 2,2,2-trifluoroacetate]",IC50,HTT mRNA [1],1000 to 10000 nM
same,AC50,HTT mRNA [1],1000 to 10000 nM
same,IC50,MYB mRNA,100 to 1000 nM
same,AC50,MYB mRNA,100 to 1000 nM
same,IC50,SMN2 mRNA,< 100 nM
same,IC50,HTT mRNA [2],1000 to 10000 nM
"Cc1cnc2c(N3CCNCC3)ccc(C(=O)Nc3cc(F)c4nc(C)cn4c3)c2n1 [Compound 197, N-{8-fluoro-2-methylimidazo[1,2-a]pyridin-6-yl}-3-methyl-8-(piperazin-1-yl)quinoxaline-5-carboxamide; trifluoroacetic acid]",IC50,HTT mRNA [1],1000 to 10000 nM
same,AC50,HTT mRNA [1],1000 to 10000 nM
same,IC50,MYB mRNA,100 to 1000 nM
same,AC50,MYB mRNA,100 to 1000 nM
same,IC50,SMN2 mRNA,< 100 nM
same,IC50,HTT mRNA [2],1000 to 10000 nM
"COCCOc1cc2c(N3CCNCC3)ccc(C(=O)Nc3cc(F)c4nc(C)cn4c3)c2nn1 [Compound 199, N-{8-fluoro-2-methylimidazo[1,2-a]pyridin-6-yl}-3-(2-methoxyethoxy)-5-(piperazin-1-yl)cinnoline-8-carboxamide]",IC50,HTT mRNA [1],> 10000 nM
same,AC50,HTT mRNA [1],> 10000 nM
same,IC50,MYB mRNA,100 to 1000 nM
same,AC50,MYB mRNA,< 100 nM
same,IC50,SMN2 mRNA,< 100 nM
same,IC50,HTT mRNA [2],> 10000 nM
"Cc1cnc2c(N3CCC(N(C)C)CC3)ccc(C(=O)Nc3cc(F)c4nc(C)cn4c3)c2n1 [Compound 200, 8-[4-(dimethylamino)piperidin-1-yl]-N-{8-fluoro-2-methylimidazo[1,2-a]pyridin-6-yl}-3-methylquinoxaline-5-carboxamide]",IC50,HTT mRNA [1],100 to 1000 nM
same,AC50,HTT mRNA [1],100 to 1000 nM
same,IC50,MYB mRNA,< 100 nM
same,AC50,MYB mRNA,< 100 nM
same,IC50,SMN2 mRNA,< 100 nM
same,IC50,HTT mRNA [2],100 to 1000 nM
"CNC1CCN(c2ccc(C(=O)Nc3cc(F)c4nc(C)cn4c3)c3nc(OC)cnc23)C1 (centres unmarked) [Compound 202, N-{8-fluoro-2-methylimidazo[1,2-a]pyridin-6-yl}-3-methoxy-8-[3-(methylamino)pyrrolidin-1-yl]quinoxaline-5-carboxamide; bis(trifluoroacetic acid)]",IC50,HTT mRNA [1],> 10000 nM
same,AC50,HTT mRNA [1],> 10000 nM
same,AC50,MYB mRNA,100 to 1000 nM
same,IC50,SMN2 mRNA,< 100 nM
same,IC50,HTT mRNA [2],> 10000 nM
"CN[C@@H]1CCN(c2ccc(C(=O)Nc3cc(F)c4nc(C)cn4c3)c3nc(OC)cnc23)C1 [Compound 204, (R)—N-{8-fluoro-2-methylimidazo[1,2-a]pyridin-6-yl}-3-methoxy-8-[3-(methylamino)pyrrolidin-1-yl]quinoxaline-5-carboxamide; trifluoroacetic acid]",IC50,HTT mRNA [1],> 10000 nM
same,AC50,HTT mRNA [1],> 10000 nM
same,IC50,MYB mRNA,1000 to 10000 nM
same,AC50,MYB mRNA,> 10000 nM
same,IC50,SMN2 mRNA,< 100 nM
same,IC50,HTT mRNA [2],> 10000 nM
"COc1cnc2c(N3C[C@@H](C)N[C@@H](C)C3)ccc(C(=O)Nc3cc(F)c4nc(C)cn4c3)c2n1 [Compound 205, 8-[(3R,5S)-3,5-dimethylpiperazin-1-yl]-N-{8-fluoro-2-methylimidazo[1,2-a]pyridin-6-yl}-3-methoxyquinoxaline-5-carboxamide; trifluoroacetic acid]",IC50,HTT mRNA [1],100 to 1000 nM
same,AC50,HTT mRNA [1],100 to 1000 nM
same,IC50,MYB mRNA,< 100 nM
same,AC50,MYB mRNA,< 100 nM
same,IC50,SMN2 mRNA,< 100 nM
same,IC50,HTT mRNA [2],100 to 1000 nM
"COc1cnc2c(N3CCC(N(C)C)CC3)ccc(C(=O)Nc3cc(F)c4nc(C)cn4c3)c2n1 [Compound 206, 8-[4-(dimethylamino)piperidin-1-yl]-N-{8-fluoro-2-methylimidazo[1,2-a]pyridin-6-yl}-3-methoxyquinoxaline-5-carboxamide; trifluoroacetic acid]",IC50,HTT mRNA [1],100 to 1000 nM
same,AC50,HTT mRNA [1],100 to 1000 nM
same,IC50,MYB mRNA,100 to 1000 nM
same,AC50,MYB mRNA,100 to 1000 nM
same,IC50,SMN2 mRNA,< 100 nM
same,IC50,HTT mRNA [2],100 to 1000 nM
"COc1cnc2c(N3CCNCC3)ccc(C(=O)Nc3cc(F)c4nc(C)cn4c3)c2n1 [Compound 207, N-{8-fluoro-2-methylimidazo[1,2-a]pyridin-6-yl}-3-methoxy-8-(piperazin-1-yl)quinoxaline-5-carboxamide; bis(trifluoroacetic acid)]",IC50,HTT mRNA [1],100 to 1000 nM
same,AC50,HTT mRNA [1],1000 to 10000 nM
same,IC50,MYB mRNA,< 100 nM
same,AC50,MYB mRNA,< 100 nM
same,IC50,SMN2 mRNA,< 100 nM
same,IC50,HTT mRNA [2],100 to 1000 nM
"Cc1cnc2c(C(=O)Nc3cc(F)c4nc(C)cn4c3)ccc(N3CCC(N(C)C)CC3)c2n1 [Compound 208, 8-[4-(dimethylamino)piperidin-1-yl]-N-{8-fluoro-2-methylimidazo[1,2-a]pyridin-6-yl}-2-methylquinoxaline-5-carboxamide; bis(trifluoroacetic acid)]",IC50,HTT mRNA [1],1000 to 10000 nM
same,AC50,HTT mRNA [1],1000 to 10000 nM
same,IC50,MYB mRNA,< 100 nM
same,AC50,MYB mRNA,< 100 nM
same,IC50,SMN2 mRNA,< 100 nM
same,IC50,HTT mRNA [2],1000 to 10000 nM
"Cc1ccc2c(N3C[C@@H](C)N[C@@H](C)C3)ccc(C(=O)Nc3cc(F)c4nc(C)cn4c3)c2n1 [Compound 214, 5-[(3R,5S)-3,5-dimethylpiperazin-1-yl]-N-{8-fluoro-2-methylimidazo[1,2-a]pyridin-6-yl}-2-methylquinoline-8-carboxamide]",IC50,HTT mRNA [1],100 to 1000 nM
same,AC50,HTT mRNA [1],1000 to 10000 nM
same,IC50,MYB mRNA,< 100 nM
same,AC50,MYB mRNA,100 to 1000 nM
same,IC50,SMN2 mRNA,< 100 nM
same,IC50,HTT mRNA [2],100 to 1000 nM
"Cc1ccc2c(N3CCC(N(C)C)CC3)ccc(C(=O)Nc3cc(F)c4nc(C)cn4c3)c2n1 [Compound 215, 5-[4-(dimethylamino)piperidin-1-yl]-N-{8-fluoro-2-methylimidazo[1,2-a]pyridin-6-yl}-2-methylquinoline-8-carboxamide]",IC50,HTT mRNA [1],100 to 1000 nM
same,AC50,HTT mRNA [1],1000 to 10000 nM
same,IC50,MYB mRNA,100 to 1000 nM
same,AC50,MYB mRNA,100 to 1000 nM
same,IC50,SMN2 mRNA,< 100 nM
same,IC50,HTT mRNA [2],100 to 1000 nM
"Cc1cnc2c(N3C[C@@H](C)N[C@@H](C)C3)ccc(C(=O)Nc3cc(F)c4nc(C)cn4c3)c2n1 [Compound 216, 8-((3R,5S)-3,5-dimethylpiperazin-1-yl)-N-{8-fluoro-2-methylimidazo[1,2-a]pyridin-6-yl}-3-methylquinoxaline-5-carboxamide]",IC50,HTT mRNA [1],1000 to 10000 nM
same,AC50,HTT mRNA [1],> 10000 nM
same,IC50,MYB mRNA,100 to 1000 nM
same,AC50,MYB mRNA,< 100 nM
same,IC50,SMN2 mRNA,< 100 nM
same,IC50,HTT mRNA [2],1000 to 10000 nM
"Cc1cn2cc(NC(=O)c3ccc(N4CCNC5(CC5)C4)c4nccnc34)cc(F)c2n1 [Compound 218, 8-{4,7-diazaspiro[2.5]octan-7-yl}-N-{8-fluoro-2-methylimidazo[1,2-a]pyridin-6-yl}quinoxaline-5-carboxamide]",IC50,HTT mRNA [1],> 10000 nM
same,AC50,HTT mRNA [1],1000 to 10000 nM
same,IC50,MYB mRNA,< 100 nM
same,AC50,MYB mRNA,< 100 nM
same,IC50,SMN2 mRNA,< 100 nM
same,IC50,HTT mRNA [2],> 10000 nM
